Results on 27 compounds are retold here after patent US8309718B2, “4-pyrazolyl-N-arylpyrimidin-2-amines and 4-pyrazolyl-N-heteroarylpyrimidin-2-amines as janus kinase inhibitors” (Incyte Corporation, priority 2007, dated 2012).

By IC50 is commonly meant the point on the concentration scale where inhibition reaches its midpoint.

In this test the target is T1, human JAK2 (Homo sapiens, UniProt O60674).
T1 construct: JAK2 (a.a. 828-1132); His tag (N); made in house; host or cells: insect cells (baculovirus)
T1 sequence (O60674 828-1132): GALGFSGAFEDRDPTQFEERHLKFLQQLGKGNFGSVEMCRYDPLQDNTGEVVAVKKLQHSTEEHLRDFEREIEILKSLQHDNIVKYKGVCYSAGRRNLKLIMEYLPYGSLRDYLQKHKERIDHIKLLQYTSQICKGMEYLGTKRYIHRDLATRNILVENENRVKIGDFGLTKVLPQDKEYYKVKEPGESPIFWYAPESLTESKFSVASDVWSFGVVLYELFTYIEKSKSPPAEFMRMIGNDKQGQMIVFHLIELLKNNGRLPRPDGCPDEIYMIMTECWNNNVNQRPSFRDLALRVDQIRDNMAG
Nature of the test: In vitro JAK kinase assay (HTRF, phosphorylation of biotinylated peptide). The settings on record: catalytic domain a.a. 828-1132, 30 μM ATP, 500 nM peptide, room temperature 1 hr; read-out: JAK-2 IC50. It is filed as biochemical. The essentials: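 His-tagged human JAK2 catalytic domain (a.a. 828-1132), baculovirus/insect-cell expressed; phosphorylation of 500 nM biotinylated peptide at 30 μM ATP in 50 mM Tris pH 7.8, 100 mM NaCl, 5 mM DTT, 0.01% BSA. 1 h at room temperature, EDTA stop, HTRF read (Eu-Py20/SA-APC); IC50.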
On the technique in general: TR-FRET usually uses a lanthanide donor and a delayed reading to cut background.

SMILES strings stand for the structures.

Consider `COC[C@H]1CCCN1C(=O)c1cccc(Nc2nccc(-c3cnn(C(CC#N)C4CCCC4)c3)n2)c1` (mixture of isomers) [Example 162, 3-cyclopentyl-3-(4-(2-(3-((R)-2-(methoxymethyl)pyrrolidine-1-carbonyl)phenylamino)pyrimidin-4-yl)-1H-pyrazol-1-yl)propanenitrile], for which the IC50 was < 100 nM. Take `COc1cnc(Nc2cccc(C(=O)N3CCCC3)c2)nc1-c1cnn(C(CC#N)C2CC2)c1` (racemic) [Example 324, 3-cyclopropyl-3-[4-(5-methoxy-2-{[3-(pyrrolidin-1-ylcarbonyl)phenyl]amino}pyrimidin-4-yl)-1H-pyrazol-1-yl]propanenitrile]: the IC50 was < 100 nM.

Regarding `N#CCC1(n2cc(-c3ccnc(Nc4ccc(-n5cccn5)cc4)n3)cn2)CN(S(=O)(=O)C2CC2)C1` (racemic) [Example 17, 2-(3-(4-(2-(4-(1H-pyrazol-1-yl)phenylamino)pyrimidin-4-yl)-1H-pyrazol-1-yl)-1-(cyclopropylsulfonyl)azetidin-3-yl)acetonitrile], the IC50 is < 100 nM. On to `N#CCC(C1CCCC1)n1cc(-c2ccnc(Nc3cccc(C(=O)NC4(CO)CCCC4)c3)n2)cn1` (racemic) [Example 165, 3-(4-(1-(2-cyano-1-cyclopentylethyl)-1H-pyrazol-4-yl)pyrimidin-2-ylamino)-N-(1-(hydroxymethyl)cyclopentyl)benzamide], for which the IC50 is < 100 nM. On to `CO[C@H]1CCN(C(=O)c2ccc(Nc3nccc(-c4cnn(C(CC#N)C5CCCC5)c4)n3)cc2)C1` (mixture of isomers) [Example 226, 3-cyclopentyl-3-(4-(2-(4-((S)-3-methoxypyrrolidine-1-carbonyl)phenylamino)pyrimidin-4-yl)-1H-pyrazol-1-yl)propanenitrile], for which the IC50 was < 100 nM. Take `COc1cnc(Nc2cccc(N3CCCS3(=O)=O)c2)nc1-c1cnn(C(CC#N)C2CC2)c1` (racemic) [Example 346, 3-cyclopropyl-3-[4-(2-{[3-(1,1-dioxidoisothiazolidin-2-yl)phenyl]amino}-5-methoxypyrimidin-4-yl)-1H-pyrazol-1-yl]propanenitrile]: the IC50 was < 100 nM. Regarding `N#CCC(C1CCOCC1)n1cc(-c2ccnc(Nc3ccc(N4CCOCC4)cc3)n2)cn1` (racemic) [Example 308, 3-(4-{2-[(4-morpholin-4-ylphenyl)amino]pyrimidin-4-yl}-1H-pyrazol-1-yl)-3-(tetrahydro-2H-pyran-4-yl)propanenitrile], the IC50 is < 100 nM. With `N#CCC(C1CC1)n1cc(-c2ccnc(Nc3ccc(N4CCOCC4)cc3)n2)cn1` (racemic) [Example 177, 3-cyclopropyl-3-(4-(2-(4-morpholinophenylamino)pyrimidin-4-yl)-1H-pyrazol-1-yl)propanenitrile], the IC50 was < 100 nM. Consider `CC(=O)N1CCN(C(=O)c2cccc(Nc3nccc(-c4cnn(C(CC#N)C5CCCC5)c4)n3)c2)CC1` (racemic) [Example 143, 3-(4-(2-(3-(4-acetylpiperazine-1-carbonyl)phenylamino)pyrimidin-4-yl)-1H-pyrazol-1-yl)-3-cyclopentylpropanenitrile], for which the 50% inhibitory concentration (IC50) was < 100 nM.

Regarding `COCC(C)NCC(=O)Nc1ccc(Nc2nccc(-c3cnn(C(CC#N)C4CCCC4)c3)n2)cc1` (mixture of isomers) [Example 211, N-(4-(4-(1-(2-cyano-1-cyclopentylethyl)-1H-pyrazol-4-yl)pyrimidin-2-ylamino)phenyl)-2-(1-methoxypropan-2-ylamino)acetamide], the half-inhibitory concentration (IC50) was < 100 nM.

Consider `CCS(=O)(=O)N1CC(CC#N)(n2cc(-c3ccnc(Nc4ccc(C(=O)N5CCC(C#N)CC5)cc4)n3)cn2)C1` (racemic) [Example 319, 1-{4-[(4-{1-[3-(cyanomethyl)-1-(ethylsulfonyl)azetidin-3-yl]-1H-pyrazol-4-yl}pyrimidin-2-yl)amino]benzoyl}piperidine-4-carbonitrile], for which the IC50 was < 100 nM. In the case of `N#CCC(C1CCCC1)n1cc(-c2ccnc(Nc3cccc(C(=O)NCCO)c3)n2)cn1` (racemic) [Example 112, 3-(4-(1-(2-cyano-1-cyclopentylethyl)-1H-pyrazol-4-yl)pyrimidin-2-ylamino)-N-(2-hydroxyethyl)benzamide], the IC50 is < 100 nM. For the compound `Cn1ccc(S(=O)(=O)N2CCC(CC(CC#N)n3cc(-c4ccnc(Nc5ccc(-n6cccn6)cc5)n4)cn3)CC2)n1` (racemic) [Example 56, 3-(4-(2-(4-(1H-pyrazol-1-yl)phenylamino)pyrimidin-4-yl)-1H-pyrazol-1-yl)-4-(1-(1-methyl-1H-pyrazol-3-ylsulfonyl)piperidin-4-yl)butanenitrile], the IC50 was < 100 nM. On to `CN(C)S(=O)(=O)Nc1cccc(Nc2nccc(-c3cnn(C(CC#N)C4CCCC4)c3)n2)c1` (racemic) [Example 202, NA-(3-(4-(1-(2-cyano-1-cyclopentylethyl)-1H-pyrazol-4-yl)pyrimidin-2-ylamino)phenyl)-N,N-dimethylsulfamide], for which the IC50 was < 100 nM. As to `N#CCC(C1CCCC1)n1cc(-c2ccnc(Nc3cccc(C(=O)N4CCC(c5ccccn5)C4)c3)n2)cn1` (mixture of isomers) [Example 152, 3-cyclopentyl-3-(4-(2-(3-(3-(pyridin-2-yl)pyrrolidine-1-carbonyl)phenylamino)pyrimidin-4-yl)-1H-pyrazol-1-yl)propanenitrile], the IC50 was < 100 nM. Regarding `N#CCC(C1CCN(S(=O)(=O)c2ccccc2)CC1)n1cc(-c2ccnc(Nc3ccc(N4CCOCC4)cc3)n2)cn1` (racemic) [Example 25, 3-(4-(2-(4-morpholinophenylamino)pyrimidin-4-yl)-1H-pyrazol-1-yl)-3-(1-(phenylsulfonyl)piperidin-4-yl)propanenitrile], the IC50 was < 100 nM. `CCS(=O)(=O)N1CCC(CC(CC#N)n2cc(-c3ccnc(Nc4ccc(N5CCOCC5=O)cc4)n3)cn2)CC1` (racemic) [Example 96, 4-(1-(ethylsulfonyl)piperidin-4-yl)-3-(4-(2-(4-(3-oxomorpholino)phenylamino)pyrimidin-4-yl)-1H-pyrazol-1-yl)butanenitrile]: the IC50 is < 100 nM. On to `CCOC(=O)N1CCC(NC(=O)c2ccc(Nc3nccc(-c4cnn(C5(CC#N)CN(S(=O)(=O)CC)C5)c4)n3)cc2)CC1` [Example 284, Ethyl 4-(4-(4-(1-(3-(cyanomethyl)-1-(ethylsulfonyl)azetidin-3-yl)-1H-pyrazol-4-yl)pyrimidin-2-ylamino)benzamido)piperidine-1-carboxylate], for which the IC50 was < 100 nM.

For the compound `CN(C)C1CCN(C(=O)c2ccc(Nc3nccc(-c4cnn(C(CC#N)C5CCCC5)c4)n3)cc2)C1` (mixture of isomers) [Example 230, 3-cyclopentyl-3-(4-(2-(4-(3-(dimethylamino)pyrrolidine-1-carbonyl)phenylamino)pyrimidin-4-yl)-1H-pyrazol-1-yl)propanenitrile], the IC50 is < 100 nM. Next, `Cc1cnc(Nc2ccc(-c3cnco3)cc2)nc1-c1cnn(C(CC#N)C2CCCC2)c1` (racemic) [Example 74, 3-cyclopentyl-3-(4-(5-methyl-2-(4-(oxazol-5-yl)phenylamino)pyrimidin-4-yl)-1H-pyrazol-1-yl)propanenitrile]: < 100 nM.

Consider `N#CCC1(n2cc(-c3ccnc(Nc4ccc(N5CCOC5=O)cc4)n3)cn2)CC(C#N)C1` (single isomer, unassigned) [Example 339, 3-(cyanomethyl)-3-[4-(2-{[4-(2-oxo-1,3-oxazolidin-3-yl)phenyl]amino}pyrimidin-4-yl)-1H-pyrazol-1-yl]cyclobutanecarbonitrile], for which the IC50 is < 100 nM. Take `N#CCC(C1CCCC1)n1cc(-c2ccnc(Nc3cccc(C(=O)N4CCC(O)(Cc5ccccc5)CC4)c3)n2)cn1` (racemic) [Example 151, 3-(4-(2-(3-(4-benzyl-4-hydroxypiperidine-1-carbonyl)phenylamino)pyrimidin-4-yl)-1H-pyrazol-1-yl)-3-cyclopentylpropanenitrile]: the IC50 is < 100 nM.

For the compound `N#CCC(C1CCCC1)n1cc(-c2ccnc(Nc3cccc(C(=O)N4CCC(Oc5ccccc5)CC4)c3)n2)cn1` (racemic) [Example 164, 3-cyclopentyl-3-(4-(2-(3-(4-phenoxypiperidine-1-carbonyl)phenylamino)pyrimidin-4-yl)-1H-pyrazol-1-yl)propanenitrile], the IC50 was < 100 nM. Next, `N#CCC(C1CCCC1)n1cc(-c2ccnc(Nc3ccc(NC(=O)c4ccccc4)cc3)n2)cn1` (racemic) [Example 183, N-(4-(4-(1-(2-cyano-1-cyclopentylethyl)-1H-pyrazol-4-yl)pyrimidin-2-ylamino)phenyl)benzamide]: < 100 nM; `N#CCC(C1CCOCC1)n1cc(-c2ccnc(Nc3ccc(C(=O)N4CCCC4)cc3)n2)cn1` (racemic) [Example 310, 3-[4-(2-{[4-(pyrrolidin-1-ylcarbonyl)phenyl]amino}pyrimidin-4-yl)-1H-pyrazol-1-yl]-3-(tetrahydro-2H-pyran-4-yl)propanenitrile]: < 100 nM; `COc1cnc(Nc2ccc(N3CCCCC3=O)cc2)nc1-c1cnn(C(CC#N)C2CCCC2)c1` (racemic) [Example 135, 3-cyclopentyl-3-(4-(5-methoxy-2-(4-(2-oxopiperidin-1-yl)phenylamino)pyrimidin-4-yl)-1H-pyrazol-1-yl)propanenitrile]: < 100 nM. Then `CCS(=O)(=O)N1CC(CC#N)(n2cc(-c3ccnc(Nc4ccc(C(=O)N5CCCC5)cc4)n3)cn2)C1` [Example 258, 2-(1-(ethylsulfonyl)-3-(4-(2-(4-(pyrrolidine-1-carbonyl)phenylamino)pyrimidin-4-yl)-1H-pyrazol-1-yl)azetidin-3-yl)acetonitrile], with < 100 nM.
